In ChEMBL document CHEMBL4477207, “Discovery of Novel 3-Quinoline Carboxamides as Potent, Selective, and Orally Bioavailable Inhibitors of Ataxia Telangiectasia Mutated (ATM) Kinase” (J Med Chem, 2016):

How the values were obtained:
[1] = target: T1, Serine-protein kinase ATM (Homo sapiens, UniProt Q13315); assay: Inhibition of ATM phosphorylation at Ser-1981 residue in human HT-29 cells incubated for 1 hr followed by X-ray irradiation by Hoechst staining based fluorescence plate reader analysis; format: cell-based
[2] = target: Serine/threonine-protein kinase ATR (Homo sapiens, UniProt Q13535); assay: Inhibition of ATR in human HT-29 cells assessed as reduction in Chk1 phosphorylation at Ser-345 residue after 60 mins in presence of 4-nitroquinoline-1-oxide by Hoechst 33258 staining based plate reader analysis; format: cell-based
[3] = target: Glycogen synthase kinase-3 beta (Homo sapiens, UniProt P49841); assay: Inhibition of GSK3beta (unknown origin)
[4] = target: Vascular endothelial growth factor receptor 2 (Homo sapiens, UniProt P35968); assay: Inhibition of KDR (unknown origin)
[5] = target: Voltage-gated inwardly rectifying potassium channel KCNH2 (Homo sapiens, UniProt Q12809)
in vitro [6] = conditions: human, hepatocytes
in vitro [7] = conditions: rat, hepatocytes
physchem = conditions: octanol/buffer, pH 7.4
[8] = target: T1, Serine-protein kinase ATM; assay: Inhibition of ATM (unknown origin) using p53 as substrate incubated for 30 mins followed by substrate addition measured after 2 hrs in presence of ATP by HTRF method
[9] = target: Serine/threonine-protein kinase mTOR (Homo sapiens, UniProt P42345); assay: Inhibition of C-terminal FLAG-tagged recombinant mTOR (1362 to 2549 residues) (unknown origin) using Biotin-Ahx-Lys-Lys-Ala-Asn-Gln-Val-Phe-Leu-Gly-Phe-Thr-Tyr-Val-Ala-Pro-Ser-Val-Leu-Glu-Ser-Val-Lys-Glu-NH2 as substrate after 90 mins by AlphaScreen assay
[10] = target: DNA-dependent protein kinase catalytic subunit (Homo sapiens, UniProt P78527); assay: Inhibition of DNAPK (unknown origin) using p53-based peptide substrate preincubated for 5 min prior to ATP addition
[11] = target: Phosphatidylinositol 4,5-bisphosphate 3-kinase catalytic subunit alpha isoform (Homo sapiens, UniProt P42336); assay: Inhibition of human recombinant PI3Kalpha using PIP2/ATP as substrate incubated for 20 mins followed by substrate addition by Kinase Glo reagent based luminescence assay
[12] = target: Phosphatidylinositol 4,5-bisphosphate 3-kinase catalytic subunit beta isoform (Homo sapiens, UniProt P42338); assay: Inhibition of human recombinant PI3Kbeta using PIP2/ATP as substrate incubated for 20 mins followed by substrate addition by Kinase Glo reagent based luminescence assay
[13] = target: Phosphatidylinositol 4,5-bisphosphate 3-kinase catalytic subunit gamma isoform (Homo sapiens, UniProt P48736); assay: Inhibition of human recombinant PI3Kgamma using PIP2/ATP as substrate incubated for 20 mins followed by substrate addition by Kinase Glo reagent based luminescence assay
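Wherever logD is given: determined by the shake flask method.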

Phosphatidylinositol 4,5-bisphosphate 3-kinase catalytic subunit beta isoform, sequence (P42338 whole entry, canonical isoform): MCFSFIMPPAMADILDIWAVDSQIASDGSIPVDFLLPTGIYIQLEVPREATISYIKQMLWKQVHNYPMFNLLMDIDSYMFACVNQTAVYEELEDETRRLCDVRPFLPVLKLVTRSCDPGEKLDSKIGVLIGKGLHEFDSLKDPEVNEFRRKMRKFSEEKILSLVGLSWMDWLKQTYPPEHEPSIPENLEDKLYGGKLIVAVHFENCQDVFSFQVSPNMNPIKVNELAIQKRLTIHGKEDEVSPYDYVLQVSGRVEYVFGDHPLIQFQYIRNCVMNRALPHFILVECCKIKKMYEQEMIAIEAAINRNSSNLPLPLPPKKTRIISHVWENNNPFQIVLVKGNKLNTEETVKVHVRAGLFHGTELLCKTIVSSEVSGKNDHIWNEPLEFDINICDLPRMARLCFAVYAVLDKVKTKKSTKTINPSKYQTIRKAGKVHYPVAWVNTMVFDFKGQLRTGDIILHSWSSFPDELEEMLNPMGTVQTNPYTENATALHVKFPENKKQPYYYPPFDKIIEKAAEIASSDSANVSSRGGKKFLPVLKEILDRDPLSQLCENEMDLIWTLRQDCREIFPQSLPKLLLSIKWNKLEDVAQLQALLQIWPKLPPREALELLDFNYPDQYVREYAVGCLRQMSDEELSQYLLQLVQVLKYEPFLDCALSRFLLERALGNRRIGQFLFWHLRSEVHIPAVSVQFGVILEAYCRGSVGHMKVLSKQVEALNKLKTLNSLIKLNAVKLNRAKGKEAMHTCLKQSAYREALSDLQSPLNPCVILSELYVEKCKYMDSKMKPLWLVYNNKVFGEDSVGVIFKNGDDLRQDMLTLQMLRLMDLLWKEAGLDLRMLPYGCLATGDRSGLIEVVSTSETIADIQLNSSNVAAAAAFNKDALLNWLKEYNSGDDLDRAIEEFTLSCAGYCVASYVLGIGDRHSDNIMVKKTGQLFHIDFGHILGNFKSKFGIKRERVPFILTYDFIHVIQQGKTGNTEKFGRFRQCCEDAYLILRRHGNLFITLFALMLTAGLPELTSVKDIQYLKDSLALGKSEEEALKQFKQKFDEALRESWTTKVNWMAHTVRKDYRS
Voltage-gated inwardly rectifying potassium channel KCNH2, sequence (Q12809 whole entry): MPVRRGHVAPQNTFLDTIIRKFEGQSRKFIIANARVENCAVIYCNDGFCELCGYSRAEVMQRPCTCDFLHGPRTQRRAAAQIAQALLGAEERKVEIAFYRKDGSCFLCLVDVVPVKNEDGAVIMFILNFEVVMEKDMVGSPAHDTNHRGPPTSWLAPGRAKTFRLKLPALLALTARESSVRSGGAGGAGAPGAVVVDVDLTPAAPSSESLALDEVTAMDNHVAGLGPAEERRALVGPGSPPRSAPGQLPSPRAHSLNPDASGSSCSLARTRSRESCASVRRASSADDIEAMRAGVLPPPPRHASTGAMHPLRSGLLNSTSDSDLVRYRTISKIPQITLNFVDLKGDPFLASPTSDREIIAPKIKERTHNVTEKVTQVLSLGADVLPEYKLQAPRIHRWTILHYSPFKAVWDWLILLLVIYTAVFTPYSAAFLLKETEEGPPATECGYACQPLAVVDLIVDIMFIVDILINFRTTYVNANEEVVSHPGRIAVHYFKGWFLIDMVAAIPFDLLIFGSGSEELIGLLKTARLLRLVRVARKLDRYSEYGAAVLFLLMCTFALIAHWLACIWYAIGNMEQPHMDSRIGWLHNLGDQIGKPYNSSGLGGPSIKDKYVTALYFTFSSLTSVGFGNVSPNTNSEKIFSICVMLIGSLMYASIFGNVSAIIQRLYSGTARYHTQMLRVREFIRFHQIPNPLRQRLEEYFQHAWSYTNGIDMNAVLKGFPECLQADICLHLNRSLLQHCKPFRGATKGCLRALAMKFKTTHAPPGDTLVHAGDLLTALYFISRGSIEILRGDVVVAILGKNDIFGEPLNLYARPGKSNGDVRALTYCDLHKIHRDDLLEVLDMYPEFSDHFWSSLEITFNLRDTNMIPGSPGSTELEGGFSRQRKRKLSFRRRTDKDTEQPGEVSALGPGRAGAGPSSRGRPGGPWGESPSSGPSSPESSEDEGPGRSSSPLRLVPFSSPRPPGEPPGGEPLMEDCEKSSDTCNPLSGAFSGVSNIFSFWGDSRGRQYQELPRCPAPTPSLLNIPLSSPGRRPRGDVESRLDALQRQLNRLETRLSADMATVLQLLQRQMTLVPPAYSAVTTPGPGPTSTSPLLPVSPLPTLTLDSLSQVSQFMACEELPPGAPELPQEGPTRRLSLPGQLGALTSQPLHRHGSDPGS
Phosphatidylinositol 4,5-bisphosphate 3-kinase catalytic subunit gamma isoform, sequence (P48736 whole entry, canonical isoform): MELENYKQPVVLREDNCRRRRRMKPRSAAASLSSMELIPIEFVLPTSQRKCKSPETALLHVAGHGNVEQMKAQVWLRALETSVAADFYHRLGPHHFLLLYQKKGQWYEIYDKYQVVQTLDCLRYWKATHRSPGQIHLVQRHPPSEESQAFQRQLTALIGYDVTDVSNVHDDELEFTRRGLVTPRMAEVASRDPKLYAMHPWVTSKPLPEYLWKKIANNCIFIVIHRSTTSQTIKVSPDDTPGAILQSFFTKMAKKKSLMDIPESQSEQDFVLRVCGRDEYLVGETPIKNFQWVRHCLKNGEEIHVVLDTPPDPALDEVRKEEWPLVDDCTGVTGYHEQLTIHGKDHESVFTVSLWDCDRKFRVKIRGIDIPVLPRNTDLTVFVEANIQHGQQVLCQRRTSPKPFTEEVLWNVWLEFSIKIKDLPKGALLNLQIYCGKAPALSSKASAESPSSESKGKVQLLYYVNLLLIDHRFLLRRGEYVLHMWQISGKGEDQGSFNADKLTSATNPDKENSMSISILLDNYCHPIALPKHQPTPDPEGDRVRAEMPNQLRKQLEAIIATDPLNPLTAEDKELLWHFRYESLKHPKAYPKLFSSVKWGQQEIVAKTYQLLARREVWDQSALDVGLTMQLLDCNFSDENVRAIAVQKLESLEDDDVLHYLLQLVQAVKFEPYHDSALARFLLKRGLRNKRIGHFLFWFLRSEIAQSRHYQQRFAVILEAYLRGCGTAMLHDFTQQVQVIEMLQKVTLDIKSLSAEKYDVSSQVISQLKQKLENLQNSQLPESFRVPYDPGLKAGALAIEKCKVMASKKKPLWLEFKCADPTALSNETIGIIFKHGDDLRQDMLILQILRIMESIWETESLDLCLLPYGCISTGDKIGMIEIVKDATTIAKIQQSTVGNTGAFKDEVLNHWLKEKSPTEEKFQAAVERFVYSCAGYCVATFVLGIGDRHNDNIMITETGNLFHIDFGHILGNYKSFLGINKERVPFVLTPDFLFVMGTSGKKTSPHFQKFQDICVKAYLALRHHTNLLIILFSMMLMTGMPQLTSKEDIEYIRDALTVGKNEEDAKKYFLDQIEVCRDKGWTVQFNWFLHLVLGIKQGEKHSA
Phosphatidylinositol 4,5-bisphosphate 3-kinase catalytic subunit alpha isoform, sequence (P42336 whole entry, canonical isoform): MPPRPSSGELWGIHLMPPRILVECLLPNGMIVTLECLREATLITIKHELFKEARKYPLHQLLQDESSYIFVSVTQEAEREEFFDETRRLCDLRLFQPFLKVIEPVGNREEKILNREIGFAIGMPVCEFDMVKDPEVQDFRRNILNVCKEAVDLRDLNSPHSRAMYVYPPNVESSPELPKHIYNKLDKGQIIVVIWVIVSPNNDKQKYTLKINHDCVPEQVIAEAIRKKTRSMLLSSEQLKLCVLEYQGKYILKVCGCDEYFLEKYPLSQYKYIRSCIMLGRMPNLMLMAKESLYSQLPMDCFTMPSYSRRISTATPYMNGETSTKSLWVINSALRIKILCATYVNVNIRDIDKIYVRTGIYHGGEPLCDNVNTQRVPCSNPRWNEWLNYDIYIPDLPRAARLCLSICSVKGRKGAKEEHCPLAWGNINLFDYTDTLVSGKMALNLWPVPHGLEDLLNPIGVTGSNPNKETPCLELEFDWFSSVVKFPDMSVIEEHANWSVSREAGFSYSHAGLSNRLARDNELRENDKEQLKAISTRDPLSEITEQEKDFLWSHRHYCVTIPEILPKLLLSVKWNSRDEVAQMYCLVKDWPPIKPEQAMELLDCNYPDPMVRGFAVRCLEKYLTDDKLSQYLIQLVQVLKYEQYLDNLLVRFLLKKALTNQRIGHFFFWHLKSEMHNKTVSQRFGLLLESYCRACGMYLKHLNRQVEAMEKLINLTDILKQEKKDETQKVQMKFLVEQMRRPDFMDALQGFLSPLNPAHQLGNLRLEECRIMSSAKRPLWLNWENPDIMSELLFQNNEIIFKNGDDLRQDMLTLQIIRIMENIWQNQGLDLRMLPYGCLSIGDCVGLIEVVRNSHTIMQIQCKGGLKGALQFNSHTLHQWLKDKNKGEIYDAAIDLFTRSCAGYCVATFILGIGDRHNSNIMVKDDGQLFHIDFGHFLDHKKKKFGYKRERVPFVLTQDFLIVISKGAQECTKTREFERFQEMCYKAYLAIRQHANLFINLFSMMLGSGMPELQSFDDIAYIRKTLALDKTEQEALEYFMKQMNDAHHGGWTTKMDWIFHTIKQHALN
Glycogen synthase kinase-3 beta, sequence (P49841 whole entry): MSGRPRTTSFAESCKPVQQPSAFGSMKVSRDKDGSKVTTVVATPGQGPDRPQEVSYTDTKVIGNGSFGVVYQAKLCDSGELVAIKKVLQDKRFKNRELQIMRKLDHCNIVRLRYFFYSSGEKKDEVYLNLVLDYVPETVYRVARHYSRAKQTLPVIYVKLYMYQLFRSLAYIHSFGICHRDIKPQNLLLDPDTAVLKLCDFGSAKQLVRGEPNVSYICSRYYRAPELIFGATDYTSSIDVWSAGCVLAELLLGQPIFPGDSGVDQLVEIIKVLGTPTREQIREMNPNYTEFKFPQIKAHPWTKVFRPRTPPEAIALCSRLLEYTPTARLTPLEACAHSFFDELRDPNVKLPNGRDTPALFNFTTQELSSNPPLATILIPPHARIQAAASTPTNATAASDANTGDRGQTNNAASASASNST

| Structure (SMILES) | IC50 [1] [µM] | IC50 [2] [µM] | IC50 [3] [µM] | IC50 [4] [µM] | hepatocyte CLint at 1.5 h (in vitro [6]) [µL/min/1e6 cells] | hepatocyte CLint at 1.5 h (in vitro [7]) [µL/min/1e6 cells] | logD (physchem) | IC50 [8] [µM] | IC50 [9] [µM] | IC50 [10] [µM] | IC50 [11] [µM] | IC50 [12] [µM] | IC50 [13] [µM] | IC50 [5] [µM] |
| --- | --- | --- | --- | --- | --- | --- | --- | --- | --- | --- | --- | --- | --- | --- |
| C[C@@H](Nc1c(C(N)=O)cnc2ccc(-c3cccnc3)cc12)C1CCOCC1 | 0.73 | 3.5 |  |  | 14 | 46 | 2.3 |  |  |  |  |  |  | 4.3 |
| C[C@@H](Nc1c(C(N)=O)cnc2ccc(C#N)cc12)c1ccc(Cl)cc1 | 14.4 | 4.7 |  |  | 10 | 41 | 3.5 | 0.049 | 0.846 | 0.109 | 0.036 | 0.139 | 0.204 |  |
| CCC(CC)CNc1c(C(N)=O)cnc2ccc(-c3cccnn3)cc12 | 0.571 | > 15 |  |  |  |  |  |  |  |  |  |  |  |  |
| CCC(CC)CNc1c(C(N)=O)cnc2ccc(-c3ccc(CO)nc3)cc12 | 0.087 | > 13 |  |  | 150 | > 300 | 3.7 |  |  |  |  |  |  | 3.1 |
| NC(=O)c1cnc2cc(F)c(-c3cccnc3)cc2c1NC1CCOCC1 | 0.606 | > 30 |  |  | 5.5 | 13 | 2.1 |  |  |  |  |  |  |  |
| C[C@H](Nc1c(C(N)=O)cnc2ccc(-c3cccnc3)cc12)c1ccn(C)n1 | 0.124 | 0.64 |  |  | 10 | 31 | 2.5 |  |  |  |  |  |  | 11 |
| CCC(CC)CNc1c(C(N)=O)cnc2ccc(-c3cnn(C)c3)cc12 | 0.525 | 7.1 |  |  |  |  |  |  |  |  |  |  |  |  |
| CCC(CC)CNc1c(C(N)=O)c(C)nc2ccc(-c3cccnc3)cc12 | > 30 | > 30 |  |  | 6 | 43 | 2.7 |  |  |  |  |  |  | 0.68 |
| CCC(CC)CNc1c(C(N)=O)cnc2ccc(-c3ccc(COC)cc3)cc12 | 0.373 | > 30 |  |  | 21 | 76 | 4.1 |  |  |  |  |  |  | 18 |
| NC(=O)c1cnc2c(F)cc(-c3cccnc3)cc2c1NC1CCOCC1 | > 30 | > 30 |  |  |  |  |  |  |  |  |  |  |  |  |
| COc1cc2ncnc(-n3nc(-c4ccccn4)nc3N)c2cc1OC |  | > 30 |  |  | 4.5 | 89 | 2.6 |  | 4.59 | 0.879 | 1.49 | 5.44 | > 1 |  |
| NC(=O)c1cnc2ccc(-c3cccnc3)cc2c1SC1CCCC1 | 9.7 | > 23 |  |  | 18 | 120 | 3.2 |  |  |  |  |  |  | 5.1 |
| NC(=O)c1cnc2cc(Cl)c(-c3cccnc3)cc2c1NC1CCOCC1 | 3.25 | > 30 |  |  | 4.3 | 15 | 2.7 |  |  |  |  |  |  | 1.2 |
| NC(=O)c1cnc2ccc(-c3cccnc3)cc2c1NC1CCCC1 | 0.137 | 1.2 |  |  | 23 | 65 | 3.6 |  |  |  |  |  |  | 0.57 |
| NC(=O)c1cnc2c(Cl)cc(-c3cccnc3)cc2c1NC1CCOCC1 | > 30 | > 30 |  |  | < 1 | 7.3 | 2.1 |  |  |  |  |  |  |  |
| CCC(CC)CNc1c(C(N)=O)cnc2c(C)cc(-c3cccnc3)cc12 | 6 | > 30 |  |  |  |  |  |  |  |  |  |  |  |  |
| CCC(CC)CNc1c(C(N)=O)cnc2ccc(-c3cccnc3)cc12 | 0.073 | > 11 |  |  | 43 | 140 | 4 |  |  |  |  |  |  |  |
| NC(=O)c1cnc2ccc(-c3cccnc3)c(F)c2c1NC1CCOCC1 | > 30 | > 30 |  |  | < 3 | 11 | 1.5 |  |  |  |  |  |  | 13 |
| C[C@@H](Nc1ccnc2ccc(-c3cccnc3)cc12)c1ccc(Cl)cc1 | > 30 | > 30 |  |  |  |  |  |  |  |  |  |  |  |  |
| C[C@@H](Nc1c(C(N)=O)cnc2ccc(-c3cccnc3)cc12)c1ccn(C)n1 | 1.13 | > 18 |  |  | 3.4 | 120 | 2.3 |  |  |  |  |  |  | 2.8 |

Continued, in another order:

| IC50 [1] [µM] | IC50 [2] [µM] | IC50 [3] [µM] | IC50 [4] [µM] | hepatocyte CLint at 1.5 h (in vitro [6]) [µL/min/1e6 cells] | hepatocyte CLint at 1.5 h (in vitro [7]) [µL/min/1e6 cells] | logD (physchem) | IC50 [8] [µM] | IC50 [9] [µM] | IC50 [10] [µM] | IC50 [11] [µM] | IC50 [12] [µM] | IC50 [13] [µM] | Structure (SMILES) | IC50 [5] [µM] |
| --- | --- | --- | --- | --- | --- | --- | --- | --- | --- | --- | --- | --- | --- | --- |
| > 30 | > 30 |  |  |  |  |  |  |  |  |  |  |  | C[C@@H](Nc1c(C(=O)O)cnc2ccc(-c3cccnc3)cc12)c1ccc(Cl)cc1 |  |
| 0.045 | > 30 | > 100 | 82 | < 6.8 | 110 | > 4.3 |  |  |  |  |  |  | CCC(CC)CNc1c(C(N)=O)cnc2ccc(-c3ccc(COC)nc3)cc12 | 2.5 |
| 3.23 | 11 |  |  | 12 | 19 | 2.1 |  |  |  |  |  |  | NC(=O)c1cnc2ccc(-c3cccnc3)cc2c1NCC1CCOCC1 |  |
| 0.908 | 2.6 |  |  | 18 | 95 | 3.1 |  |  |  |  |  |  | CCC(CC)CNc1c(C(N)=O)cnc2ccc(-c3ccnnc3)cc12 |  |
| 0.418 | 0.73 |  |  | 37 | 76 | 3.3 |  |  |  |  |  |  | CCC(CC)CNc1c(C(N)=O)cnc2ccc(-c3ccncc3)cc12 |  |
| 0.063 | > 25 |  |  | 5.7 | 6.4 | 2.6 |  |  |  |  |  |  | COCc1ccc(-c2ccc3ncc(C(N)=O)c(N[C@@H](C)c4ccn(C)n4)c3c2)c(F)n1 |  |
| > 30 | > 30 |  |  |  |  |  |  |  |  |  |  |  | CNC(=O)c1cnc2ccc(-c3cccnc3)cc2c1N[C@H](C)c1ccc(Cl)cc1 |  |
|  | > 30 |  |  |  |  |  |  |  |  |  |  |  | COCc1ccc(-c2cc3c(N[C@@H](C)c4ccn(C)n4)c(C(N)=O)cnc3cc2F)c(F)n1 |  |
| 0.052 | > 30 |  |  |  |  |  |  |  |  |  |  |  | COCc1ccc(-c2cc3c(N[C@@H](C)C4CCOCC4)c(C(N)=O)cnc3cc2F)cn1 |  |
| 0.05 | 5.5 |  |  | 7.3 | 150 | > 4.3 |  |  |  |  |  |  | CCC(CC)CNc1c(C(N)=O)cnc2ccc(-c3ccc(C)nc3)cc12 |  |
| 0.954 | 3.1 |  |  | < 4.2 | 8.5 | 1.9 |  |  |  |  |  |  | NC(=O)c1cnc2ccc(-c3cccnc3)cc2c1NC1CCOCC1 |  |
| 0.132 | 3.2 |  |  | 34 | 70 | 3.8 |  |  |  |  |  |  | NC(=O)c1cnc2ccc(-c3cccnc3)cc2c1NC1CCCCC1 |  |
|  |  |  |  | 13 | 22 | 3.6 |  | 6.55 |  | 0.452 | 2.14 | > 1 | C[C@@H]1CN(CC(=O)Nc2ccc3c(c2)Cc2cccc(-c4cc(=O)cc(N5CCOCC5)o4)c2S3)C[C@H](C)O1 |  |
| 0.039 | > 30 |  |  | 15 | 200 | 3.1 |  |  |  |  |  |  | CCC(CC)CNc1c(C(N)=O)cnc2ccc(-c3ccc(CS(C)(=O)=O)nc3)cc12 | 1.9 |
| 0.07 | > 30 |  |  | 23 | 210 | 3.5 |  |  |  |  |  |  | CCC(CC)CNc1c(C(N)=O)cnc2ccc(-c3ccc(CS(C)(=O)=O)cc3)cc12 | 2.1 |
| 1.84 | > 18 |  |  | 46 | 140 | 3.3 |  |  |  |  |  |  | CCC(CC)CNc1c(C(N)=O)cnc2ccc(-c3cncnc3)cc12 |  |
|  | > 30 |  |  | 33 | 230 | 4 |  | 5.58 |  | 0.458 | 0.133 | > 1 | O=c1cc(-c2cccc3c2Sc2ccccc2S3)oc(N2CCOCC2)c1 [KU-55933] |  |
| 0.019 | > 30 |  |  | 5.5 | 4.8 | 3 |  |  |  |  |  |  | COCc1ccc(-c2cc3c(N[C@@H](C)c4nn(C)cc4F)c(C(N)=O)cnc3cc2F)cn1 |  |
| 0.456 | 3 |  |  | 40 | 130 | > 4.3 |  |  |  |  |  |  | NC(=O)c1cnc2ccc(-c3cccnc3)cc2c1NCC1CCCCC1 | 0.83 |
| 0.168 | > 14 |  |  | 14 | 38 | 2.5 |  |  |  |  |  |  | C[C@H](Nc1c(C(N)=O)cnc2ccc(-c3cccnc3)cc12)C1CCOCC1 | 3.6 |
